From US20040152119A1, “Solid phase sequencing” (priority 2003, published 2004)

Test system: cloned DNA polymerase I genetically engineered to eliminate 3′-5′ exonuclease activity, 5′-3′exonuclease activity and discrimination against dideoxynucleotides
Assay: Nucleic acid sequence detection by polymerase incorporation of gamma-phosphate-labeled dideoxynucleotide in the presence of shrimp alkaline phosphatase (fluorescence)
Format: biochemical
Settings: 23° C.; for dye emission with Primer: Template 1: next template nucleotide dC (SEQ ID NO: 2); for dye emission with Primer: Template 2: next template nucleotide dT (SEQ ID NO: 3)
Protocol: Reactions were assembled at room temperature (23° C.) using the dideoxynucleotide of Example (1). Reactions contained primer template combinations having a single oligonucleotide primer (represented by SEQ ID NO: 1) annealed to one of two different oligonucleotide templates with either a dC or a dT as the next template nucleotide adjacent the 3′ terminus of the primer, corresponding to SEQ ID NO: 2 and SEQ ID NO: 3, respectively.
Referring now to FIG. 1, for template 1 (SEQ ID NO: 2) in the present example, DNA polymerase would be expected to extend the primer with labeled ddGTP. Similarly, for template 2 (SEQ ID NO: 3) in FIG. 1, DNA polymerase would be expected to extend the primer with ddATP, but not with labeled ddGTP.
Reaction conditions: A 70 μl reaction containing 25 mM Tris, pH 8.0, 5% glycerol 5 mM MgC12, 0.5 mM beta-mercaptoethanol, 0.01% tween-20, 0.25 units shrimp alkaline phosphatase, 100 nM primer annealed to template (the next template nucleotide is either dCMP or dTMP, as indicated), and 2 μM ddGTP-CF3-Coumarin was assembled in a quartz fluorescence ultra-microcuvet in a LS-55 Luminescence Spectrometer (Perkin Elmer), operated in time drive mode. Excitation and emission wavelengths are 390 nm and 500 nm respectively. Slit widths were 5 nm for excitation slits, 15 nm for emission slits. The reaction was initiated by the addition of 0.35 μl (11 units) of a cloned DNA polymerase I genetically engineered to eliminate 3′-5′ exonuclease activity, 5′-3′exonuclease activity and discrimination against dideoxynucleotides and 0.25 mM MnCl2. […]

[1] = 2 μM ddATP-CN-Coumarin, excitation 410 nm, emission 450 nm, FIG. 2
[2] = 2 μM ddGTP-CF3-Coumarin, excitation 390 nm, emission 500 nm, FIG. 1

Row | Compound | dye emission with Primer: Template 1 [1] | dye emission with Primer: Template 2 [1] | dye emission with Primer: Template 1 [2] | dye emission with Primer: Template 2 [2]
1 | N#Cc1cc2ccc(OP(=O)(O)OP(=O)(O)OP(=O)(O)OC[C@@H]3CC[C@H](n4cnc5c(N)ncnc54)O3)cc2oc1=O [gamma labeled ddATP, γ-(3-Cyanocoumarinyl)ddATP] | No detectable dye emission | dye emission was detected | – | –
2 | Nc1nc2c(ncn2[C@H]2CC[C@@H](COP(=O)(O)OP(=O)(O)OP(=O)(O)Oc3ccc4c(C(F)(F)F)cc(=O)oc4c3)O2)c(=O)[nH]1 [gamma labeled ddGTP, γ-(4-trifluoromethylcoumarinyl)ddGTP] | – | – | dye emission was detected | No detectable dye emission
